{"source": "patent US7262185B2", "about": "“Benzazepine derivative, process for producing the same, and use” (Takeda Chemical Industries Ltd., priority 2001, dated 2007)"}
{"units": {"melting point": "°C"}}
{"smiles": "CCCCOCCOc1ccc(-c2ccc3c(c2)C=C(C(=O)Nc2ccc([S+]([O-])Cc4ncon4)cc2)CCN3CC(C)C)cc1", "note": "(centres unmarked) [Compound 129, 7-[4-(2-butoxyethoxy)phenyl]-1-isobutyl-N-[4-(1,2,4-oxadiazol-3-ylmethylsulfinyl)phenyl]-2,3-dihydro-1H-benzazepine-4-carboxamide]", "melting point": "142 to 144"}
{"smiles": "CCCCOCCOc1ccc(-c2ccc3c(c2)C=C(C(=O)Nc2ccc(C[S+]([O-])c4nncn4C)cc2)CCN3CC(C)C)cc1", "note": "(centres unmarked) [Compound 118, 7-[4-(2-butoxyethoxy)phenyl]-N-[4-(4-methyl-4H-1,2,4-triazol-3-ylsulfinylmethyl)phenyl]-1-isobutyl-2,3-dihydro-1H-1-benzazepine-4-carboxamide]", "melting point": "87 to 89"}
{"smiles": "CCCCOCCOc1ccc(-c2ccc3c(c2)C=C(C(=O)Nc2ccc(C(O)c4c(OCCC)ccc[n+]4[O-])cc2)CCN3C(=O)C(F)(F)F)cc1", "note": "(centres unmarked) [Compound 112, 7-[4-(2-butoxyethoxy)phenyl]-N-[4-[hydroxy(1-oxido-3-propoxypyridin-2-yl)methyl]phenyl]-1-trifluoroacetyl-2,3-dihydro-1H-1-benzazepine-4-carboxamide]", "melting point": "144 to 146"}
{"smiles": "CCCCOCCOc1ccc(-c2ccc3c(c2)C=C(C(=O)Nc2ccc(C(O)c4cc(C)cc[n+]4[O-])c(OCC)c2)CCN3)cc1", "note": "(centres unmarked) [Compound 11, 7-[4-(2-butoxyethoxy)phenyl]-N-[3-ethoxy-4-[hydroxy(4-methyl-1-oxidopyridin-2-yl)methyl]phenyl]-2,3-dihydro-1H-1-benzazepine-4-carboxamide]", "melting point": "110 to 115"}
{"smiles": "CCCCOCCOc1ccc(-c2ccc3c(c2)C=C(C(=O)Nc2ccc(SCc4nncn4CCC)c(C(F)(F)F)c2)CCN3CC(C)C)cc1", "note": "[Compound 42, 7-[4-(2-butoxyethoxy)phenyl]-1-isobutyl-N-[3-trifluoromethyl-4-[(4-propyl-4H-1,2,4-triazol-3-yl)methylthio]phenyl]-2,3-dihydro-1H-1-benzazepine-4-carboxamide]", "melting point": "131 to 133"}
{"smiles": "CCCCOCCOc1ccc(-c2ccc3c(c2)C=C(C(=O)Nc2ccc(CC(=O)c4nccn4CCC)cc2)CCN3CC(C)C)cc1", "note": "[Compound 451, 7-[4-(2-butoxyethoxy)phenyl]-1-isobutyl-N-[4-(2-oxo-2-(1-propylimidazol-2-yl)ethyl)phenyl]-2,3-dihydro-1H-1-benzazepine-4-carboxamide]", "melting point": "136.5 to 138"}
{"smiles": "CCCCOCCOc1ccc(-c2ccc3c(c2)C=C(C(=O)Nc2ccc(C(O)c4cccc[n+]4[O-])c(OC)c2)CCN3)cc1", "note": "(centres unmarked) [Compound 3, 7-[4-(2-butoxyethoxy)phenyl]-N-[4-[hydroxy(1-oxidopyridin-2-yl)methyl]-3-methoxyphenyl]-2,3-dihydro-1H-1-benzazepine-4-carboxamide]", "melting point": "116 to 118"}
{"smiles": "CCCCOCCOc1ccc(-c2ccc3c(c2)C=C(C(=O)Nc2ccc([C@H](O)c4cccc[n+]4[O-])cc2)CCN3C(=O)C(F)(F)F)cc1", "note": "[Compound 80, 7-[4-(2-butoxyethoxy)phenyl]-N-[4-[(S)-hydroxy(1-oxidopyridin-2-yl)methyl]phenyl]-2,3-dihydro-1-trifluoroacetyl-1H-1-benzazepine-4-carboxamide]", "melting point": "107 to 110"}
{"smiles": "CCCCOCCOc1ccc(-c2ccc3c(c2)C=C(C(=O)Nc2ccc([C@H](O)c4cccc[n+]4[O-])cc2)CCN3C=O)cc1", "note": "[Compound 77, 7-[4-(2-butoxyethoxy)phenyl]-1-formyl-N-[4-[(S)-hydroxy(1-oxidopyridin-2-yl)methyl]phenyl]-2,3-dihydro-1H-1-benzazepine-4-carboxamide]", "melting point": "120 to 125"}
{"smiles": "CCCCOCCOc1ccc(-c2ccc3c(c2)C=C(C(=O)Nc2ccc(SCc4nccn4CCCC(=O)OCC)cc2)CCN3CC(C)C)cc1", "note": "[Compound 413, ethyl 4-[2-[[[4-[[[7-[4-(2-butoxyethoxy)phenyl]-1-isobutyl-2,3-dihydro-1H-1-benzazepin-4-yl]carbonyl]amino]phenyl]thio]methyl]-1H-imidazol-1-yl]butanoate]", "melting point": "103 to 104"}
{"smiles": "CCCCOCCOc1ccc(-c2ccc3c(c2)C=C(C(=O)Nc2ccc(C(O)c4ccc(Cl)c[n+]4[O-])cc2)CCN3C(=O)C(F)(F)F)cc1", "note": "(centres unmarked) [Compound 108, 7-[4-(2-butoxyethoxy)phenyl]-N-[4-[hydroxy(5-chloro-1-oxidopyridin-2-yl)methyl]phenyl]-1-trifluoroacetyl-2,3-dihydro-1H-1-benzazepine-4-carboxamide]", "melting point": "200 to 203"}
{"smiles": "CCCCOCCOc1ccc(-c2ccc3c(c2)C=C(C(=O)Nc2ccc(CSc4nncs4)cc2)CCN3CC(C)C)cc1", "note": "[Compound 115, 7-[4-(2-butoxyethoxy)phenyl]-N-[4-(1,3,4-thiadiazol-2-ylthiomethyl)phenyl]-1-isobutyl-2,3-dihydro-1H-1-benzazepine-4-carboxamide]", "melting point": "77 to 79"}
{"smiles": "CCCCOCCOc1ccc(-c2ccc3c(c2)C=C(C(=O)Nc2ccc([C@H](O)c4cccc[n+]4[O-])cc2)CCN3Cc2ccccc2)cc1", "note": "[Compound 90, 1-benzyl-7-[4-(2-butoxyethoxy)phenyl]-N-[4-[(S)-hydroxy(1-oxidopyridin-2-yl)methyl]phenyl]-2,3-dihydro-1H-1-benzazepine-4-carboxamide]", "melting point": "89 to 93"}
{"smiles": "CCCCOCCOc1ccc(-c2ccc3c(c2)C=C(C(=O)Nc2ccc(C(O)c4ccc(Cl)c[n+]4[O-])cc2)CCN3CC(C)C)cc1", "note": "(centres unmarked) [Compound 110, 7-[4-(2-butoxyethoxy)phenyl]-N-[4-[hydroxy(5-chloro-1-oxidopyridin-2-yl)methyl]phenyl]-1-isobutyl-2,3-dihydro-1H-1-benzazepine-4-carboxamide]", "melting point": "137 to 139"}
{"smiles": "CCCCOCCOc1ccc(-c2ccc3c(c2)C=C(C(=O)Nc2ccc(SCc4ncon4)cc2)CCN3CC(C)C)cc1", "note": "[Compound 128, 7-[4-(2-butoxyethoxy)phenyl]-1-isobutyl-N-[4-(1,2,4-oxadiazol-3-ylmethylthio)phenyl]-2,3-dihydro-1H-benzazepine-4-carboxamide]", "melting point": "112 to 115"}
{"smiles": "CCCCOCCOc1ccc(-c2ccc3c(c2)C=C(C(=O)Nc2ccc([C@H](O)c4ccccn4)cc2)CCN3S(C)(=O)=O)cc1", "note": "[Compound 93, 7-[4-(2-butoxyethoxy)phenyl]-N-[4-[(S)-hydroxy(2-pyridyl)methyl]phenyl]-1-methanesulfonyl-2,3-dihydro-1H-1-benzazepine-4-carboxamide]", "melting point": "158 to 160"}
{"smiles": "CCCCOCCOc1ccc(-c2ccc3c(c2)C=C(C(=O)Nc2ccc(C(O)c4ncccc4OCCC)cc2)CCN3C(=O)C(F)(F)F)cc1", "note": "(centres unmarked) [Compound 111, 7-[4-(2-butoxyethoxy)phenyl]-N-[4-[hydroxy(3-propoxypyridin-2-yl)methyl]phenyl]-1-trifluoroacetyl-2,3-dihydro-1H-1-benzazepine-4-carboxamide]", "melting point": "154 to 157"}
{"smiles": "CCCCOCCOc1ccc(-c2ccc3c(c2)C=C(C(=O)Nc2ccc(CSc4nnc(C)o4)cc2)CCN3CC(C)C)cc1", "note": "[Compound 116, 7-[4-(2-butoxyethoxy)phenyl]-N-[4-(5-methyl-1,3,4-oxadiazol-2-ylthiomethyl)phenyl]-1-isobutyl-2,3-dihydro-1H-1-benzazepine-4-carboxamide]", "melting point": "107 to 109"}
{"smiles": "CCCCOCCOc1ccc(-c2ccc3c(c2)C=C(C(=O)Nc2ccc(C(O)c4cccc(C)[n+]4[O-])cc2)CCN3CC(C)C)cc1", "note": "(centres unmarked) [Compound 98, 7-[4-(2-butoxyethoxy)phenyl]-N-[4-[hydroxy(6-methyl-1-oxidopyridin-2-yl)methyl]phenyl]-1-isobutyl-2,3-dihydro-1H-1-benzazepine-4-carboxamide]", "melting point": "114 to 116"}
{"smiles": "CCCCOCCOc1ccc(-c2ccc3c(c2)C=C(C(=O)Nc2ccc([S+]([O-])Cc4cncn4CC(N)=O)cc2)CCN3CC(C)C)cc1", "note": "(centres unmarked) [Compound 430, N-[4-[[[1-(2-amino-2-oxoethyl)-1H-imidazol-5-yl]methyl]sulfinyl]phenyl]-7-[4-(2-butoxyethoxy)phenyl]-1-isobutyl-2,3-dihydro-1H-1-benzazepine-4-carboxamide]", "melting point": "123 to 125"}
{"smiles": "CCCCOCCOc1ccc(-c2ccc3c(c2)C=C(C(=O)Nc2ccc(OCc4nccn4CCC)cc2)CCN3CC(C)C)cc1", "note": "[Compound 25, 7-[4-(2-butoxyethoxy)phenyl]-1-isobutyl-N-[4-[(1-propylimidazole-2-yl)methoxy]phenyl]-2,3-dihydro-1H-1-benzazepine-4-carboxamide]", "melting point": "118 to 120"}
{"smiles": "CCCCOCCOc1ccc(-c2ccc3c(c2)C=C(C(=O)Nc2ccc([C@@H](O)c4cccc[n+]4[O-])cc2)CCN3C=O)cc1", "note": "[Compound 78, 7-[4-(2-butoxyethoxy)phenyl]-1-formyl-N-[4-[(R)-hydroxy(1-oxidopyridin-2-yl)methyl]phenyl]-2,3-dihydro-1H-1-benzazepine-4-carboxamide]", "melting point": "104 to 106"}
{"smiles": "CCCCOCCOc1ccc(-c2ccc3c(c2)C=C(C(=O)Nc2ccc([C@H](O)c4cccc[n+]4[O-])cc2)CCN3CCC)cc1", "note": "[Compound 83, 7-[4-(2-butoxyethoxy)phenyl]-N-[4-[(S)-hydroxy(1-oxidopyridin-2-yl)methyl]phenyl]-1-propyl-2,3-dihydro-1H-1-benzazepine-4-carboxamide]", "melting point": "87 to 89"}
